According to PubChem BioAssay (NCI):
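The compound was tested at five concentrations on cells cultured in 96-well plates, with a 48-hour exposure period. TGI: concentration producing complete growth inhibition.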

Tests used:
Experiment in all cases: DTP human tumour cell line panel, 48 h
[1] = test system: 786-0 renal
[2] = test system: A498 renal
[3] = test system: A549 NSCLC
[4] = test system: ACHN renal
[5] = test system: CAKI-1 renal
[6] = test system: CCRF-CEM leukemia
[7] = test system: COLO 205 colon
[8] = test system: DMS 114 small cell lung
[9] = test system: DMS 273 small cell lung
[10] = test system: EKVX NSCLC
[11] = test system: HCC-2998 colon
[12] = test system: HCT-116 colon
[13] = test system: HCT-15 colon
[14] = test system: HL-60(TB) leukemia
[15] = test system: HOP-18 NSCLC
[16] = test system: HOP-62 NSCLC
[17] = test system: HOP-92 NSCLC
[18] = test system: HT29 colon
[19] = test system: IGROV1 ovarian
[20] = test system: K-562 leukemia
[21] = test system: KM12 colon
[22] = test system: KM20L2 colon
[23] = test system: LOX IMVI melanoma
[24] = test system: LXFL 529 NSCLC
[25] = test system: M14 melanoma
[26] = test system: M19-MEL melanoma
[27] = test system: MALME-3M melanoma
[28] = test system: MOLT-4 leukemia
[29] = test system: NCI-H226 lung
[30] = test system: NCI-H23 lung
[31] = test system: NCI-H460 lung
[32] = test system: NCI-H522 lung
[33] = test system: OVCAR-3 ovarian
[34] = test system: OVCAR-4 ovarian
[35] = test system: OVCAR-5 ovarian
[36] = test system: OVCAR-8 ovarian
[37] = test system: RPMI-8226 leukemia
[38] = test system: RXF 393 renal
[39] = test system: RXF-631 renal
[40] = test system: SF-268 CNS
[41] = test system: SF-295 CNS
[42] = test system: SF-539 CNS
[43] = test system: SK-MEL-2 melanoma
[44] = test system: SK-MEL-28 melanoma
[45] = test system: SK-MEL-5 melanoma
[46] = test system: SK-OV-3 ovarian
[47] = test system: SN12C renal
[48] = test system: SNB-19 CNS
[49] = test system: SNB-75 CNS
[50] = test system: SNB-78 CNS
[51] = test system: SR leukemia
[52] = test system: SW-620 colon
[53] = test system: TK-10 renal
[54] = test system: U251 CNS
[55] = test system: UACC-257 melanoma
[56] = test system: UACC-62 melanoma
[57] = test system: UO-31 renal
[58] = test system: DLD-1 colon
[59] = test system: XF 498 CNS

## CCOC(=O)c1c(/C=N\Nc2ccccc2)nc2ccccc2c1-c1ccccc1
[1]
  TGI: > 100 µM
[2]
  TGI: > 100 µM
[3]
  TGI: > 100 µM
[4]
  TGI: > 100 µM
[5]
  TGI: > 100 µM
[6]
  TGI: 88 µM
[7]
  TGI: 53 µM
[8]
  TGI: 98.1 µM
[9]
  TGI: > 100 µM
[10]
  TGI: > 100 µM
[11]
  TGI: 77 µM
[12]
  TGI: > 100 µM
[13]
  TGI: > 100 µM
[14]
  TGI: 50.1 µM
[15]
  TGI: > 100 µM
[16]
  TGI: > 100 µM
[17]
  TGI: > 100 µM
[18]
  TGI: > 100 µM
[19]
  TGI: > 100 µM
[20]
  TGI: > 100 µM
[21]
  TGI: > 100 µM
[22]
  TGI: > 100 µM
[23]
  TGI: > 100 µM
[24]
  TGI: > 100 µM
[25]
  TGI: > 100 µM
[26]
  TGI: 60.7 µM
[27]
  TGI: 90.5 µM
[28]
  TGI: 68.8 µM
[29]
  TGI: > 100 µM
[30]
  TGI: > 100 µM
[31]
  TGI: > 100 µM
[32]
  TGI: 67.1 µM
[33]
  TGI: > 100 µM
[34]
  TGI: > 100 µM
[35]
  TGI: > 100 µM
[36]
  TGI: > 100 µM
[37]
  TGI: 83.8 µM
[38]
  TGI: > 100 µM
[39]
  TGI: > 100 µM
[40]
  TGI: > 100 µM
[41]
  TGI: > 100 µM
[42]
  TGI: > 100 µM
[43]
  TGI: > 100 µM
[44]
  TGI: > 100 µM
[45]
  TGI: 85.6 µM
[46]
  TGI: > 100 µM
[47]
  TGI: > 100 µM
[48]
  TGI: > 100 µM
[49]
  TGI: > 100 µM
[50]
  TGI: > 100 µM
[51]
  TGI: 61.4 µM
[52]
  TGI: > 100 µM
[53]
  TGI: > 100 µM
[54]
  TGI: > 100 µM
[55]
  TGI: > 100 µM
[56]
  TGI: 76.9 µM
[57]
  TGI: 98.7 µM

## CCOC(=O)Oc1ccc2[nH]c3c(C)cc(N)c(C)c3c2c1
[1]
  TGI: > 100 µM
[3]
  TGI: > 100 µM
[4]
  TGI: > 100 µM
[5]
  TGI: > 100 µM
[6]
  TGI: > 100 µM
[7]
  TGI: > 100 µM
[58]
  TGI: > 100 µM
[8]
  TGI: > 100 µM
[9]
  TGI: > 100 µM
[10]
  TGI: > 100 µM
[11]
  TGI: > 100 µM
[12]
  TGI: > 100 µM
[13]
  TGI: > 100 µM
[14]
  TGI: > 100 µM
[15]
  TGI: > 100 µM
[16]
  TGI: > 100 µM
[18]
  TGI: > 100 µM
[20]
  TGI: > 100 µM
[21]
  TGI: > 100 µM
[23]
  TGI: > 100 µM
[25]
  TGI: > 100 µM
[26]
  TGI: > 100 µM
[27]
  TGI: > 100 µM
[28]
  TGI: > 100 µM
[29]
  TGI: > 100 µM
[30]
  TGI: > 100 µM
[31]
  TGI: > 100 µM
[32]
  TGI: > 100 µM
[33]
  TGI: > 100 µM
[34]
  TGI: > 100 µM
[35]
  TGI: > 100 µM
[36]
  TGI: > 100 µM
[37]
  TGI: > 100 µM
[40]
  TGI: > 100 µM
[41]
  TGI: > 100 µM
[42]
  TGI: > 100 µM
[43]
  TGI: > 100 µM
[44]
  TGI: > 100 µM
[45]
  TGI: > 100 µM
[47]
  TGI: > 100 µM
[48]
  TGI: > 100 µM
[49]
  TGI: > 100 µM
[50]
  TGI: > 100 µM
[51]
  TGI: > 100 µM
[52]
  TGI: > 100 µM
[53]
  TGI: > 100 µM
[55]
  TGI: > 100 µM
[57]
  TGI: > 100 µM
[59]
  TGI: > 100 µM

## CC1CC2C(=O)N(c3ccccc3)C(=O)C2c2[nH]c3ccccc3c21 (centres undefined)
[1]
  TGI: > 100 µM
[2]
  TGI: > 100 µM
[3]
  TGI: > 100 µM
[4]
  TGI: > 100 µM
[6]
  TGI: > 100 µM
[7]
  TGI: > 100 µM
[58]
  TGI: > 100 µM
[8]
  TGI: > 100 µM
[9]
  TGI: > 100 µM
[10]
  TGI: > 100 µM
[11]
  TGI: > 100 µM
[13]
  TGI: > 100 µM
[14]
  TGI: > 100 µM
[18]
  TGI: > 100 µM
[19]
  TGI: > 100 µM
[20]
  TGI: > 100 µM
[21]
  TGI: > 100 µM
[23]
  TGI: > 100 µM
[24]
  TGI: > 100 µM
[25]
  TGI: > 100 µM
[26]
  TGI: > 100 µM
[27]
  TGI: > 100 µM
[28]
  TGI: > 100 µM
[30]
  TGI: > 100 µM
[31]
  TGI: > 100 µM
[33]
  TGI: > 100 µM
[34]
  TGI: > 100 µM
[36]
  TGI: > 100 µM
[37]
  TGI: > 100 µM
[38]
  TGI: > 100 µM
[39]
  TGI: > 100 µM
[40]
  TGI: > 100 µM
[41]
  TGI: > 100 µM
[42]
  TGI: > 100 µM
[44]
  TGI: > 100 µM
[45]
  TGI: > 100 µM
[46]
  TGI: 36.7 µM
[47]
  TGI: > 100 µM
[49]
  TGI: 55.1 µM
[50]
  TGI: > 100 µM
[51]
  TGI: > 100 µM
[52]
  TGI: > 100 µM
[53]
  TGI: > 100 µM
[54]
  TGI: > 100 µM
[56]
  TGI: > 100 µM

## O=C(Nc1ccccc1)Oc1ccccc1C1CCCCC1
[1]
  TGI: 53.2 µM
[2]
  TGI: > 100 µM
[3]
  TGI: 88.5 µM
[6]
  TGI: 67.3 µM
[7]
  TGI: 30.6 µM
[58]
  TGI: > 100 µM
[8]
  TGI: 32.8 µM
[9]
  TGI: 42.6 µM
[10]
  TGI: 85.4 µM
[11]
  TGI: 81.5 µM
[12]
  TGI: 90.2 µM
[13]
  TGI: 40.9 µM
[14]
  TGI: 35.2 µM
[15]
  TGI: 68.5 µM
[16]
  TGI: 59.6 µM
[17]
  TGI: 31.3 µM
[18]
  TGI: 51.6 µM
[19]
  TGI: > 100 µM
[20]
  TGI: 50.3 µM
[21]
  TGI: > 100 µM
[23]
  TGI: 26.8 µM
[24]
  TGI: > 100 µM
[25]
  TGI: 56.7 µM
[26]
  TGI: 37.5 µM
[27]
  TGI: 57.1 µM
[28]
  TGI: > 100 µM
[29]
  TGI: 37.6 µM
[30]
  TGI: 47.1 µM
[31]
  TGI: 60 µM
[33]
  TGI: 34.7 µM
[34]
  TGI: 37.3 µM
[35]
  TGI: > 100 µM
[36]
  TGI: > 100 µM
[37]
  TGI: 52 µM
[38]
  TGI: 21.9 µM
[40]
  TGI: > 100 µM
[41]
  TGI: 51.2 µM
[42]
  TGI: > 100 µM
[44]
  TGI: 58.1 µM
[45]
  TGI: 26.9 µM
[46]
  TGI: > 100 µM
[47]
  TGI: 41.1 µM
[48]
  TGI: > 100 µM
[49]
  TGI: 39.9 µM
[50]
  TGI: 54.9 µM
[51]
  TGI: 55.7 µM
[52]
  TGI: 72.5 µM
[53]
  TGI: > 100 µM
[54]
  TGI: 30.7 µM
[55]
  TGI: 40.2 µM
[56]
  TGI: > 100 µM
[57]
  TGI: 74.3 µM
[59]
  TGI: 35 µM
